# Measured values reported in PMC10835732, “Pharmacokinetics of Hydroxytyrosol and Its Sulfate and Glucuronide Metabolites after the Oral Administration of Table Olives to Sprague-Dawley Rats” (Journal of Agricultural and Food Chemistry, 2024).
# Like-named read-outs stand apart in the source and are kept apart here. Marks after values point to notes of the source that are not given here.
# How the values were obtained:
# [1] = cited from earlier work; for share represented by hydroxytyrosol sulfates: ref Kotronoulas et al. 39
# [2] = Plasma pharmacokinetics (noncompartmental analysis) after single oral administration of Arbequina table olives; type: in vivo, Sprague-Dawley rats; settings: for AUC0–∞ / Cmax/D / AUC0–∞/D / AUCt/D / Cl/F·fm (apparent clearance of metabolite) / MRT0–∞ / Vdarea/F·fm (apparent volume of distribution of metabolite, terminal phase) / Vss/F·fm (apparent steady-state volume of distribution of metabolite) / t1/2λz (apparent elimination half-life) / λz (apparent elimination rate constant) / AUCt / Cmax: geometric mean (95% CI); for Cmax/D: D = dose of hydroxytyrosol in nmol; for AUC0–∞/D / AUCt/D: D in nmol; for Tmax: median (min, max); for AUCt: time zero up to 8 h; for Cmax / percentage of the AUC of each compound divided by the AUC of the sum of all of them: plasma; for Cmax: read-out: Cmax; for half-life (t1/2λz) / mean residence time (MRT0–∞): oral table olives; for percentage of the AUC of each compound divided by the AUC of the sum of all of them: both doses (similar ratios between doses)
# Protocol: The experiments were performed using Sprague–Dawley rats (n = 13) randomly divided into two groups, the 30 olives group (n = 6) that received the dose of 3.85 g/kg and the 60 olives group (n = 7), which was given the dose of 7.70 g/kg. The freshly prepared homogeneous suspensions were given to overnight fasted rats by oral gavage (18-gauge × 76 mm, ref FFSS-186-76, Instech Laboratories, Inc., Plymouth Meeting, PA). The volume of administration was 10 mL/kg. After the single administration of Arbequina table olives, blood was obtained at 30, 60, 90, 120, 240, 360, and 480 min from each animal. Samples were withdrawn from the lateral saphenous vein and placed into Microvette CB 300 K2 EDTA-K2 (Sarstedt, Granollers, Spain) coated tubes.[31] At each time point, 0.40 mL of blood was collected, meaning that a maximum of 2.4 mL was obtained from each animal. […] Blood corresponding to 480 min was taken by a cardiac puncture with the animal under terminal anesthesia. Plasma was immediately obtained by centrifugation at 1500g at 4 °C for 15 min (Centrifuge Megafuge 1.0R, Heraeus, Boadilla, Spain) and kept at −20 °C until analysis.
# Hydroxytyrosol and its metabolites in plasma were determined by liquid–liquid extraction followed by LC-MS/MS analysis as previously described.[11] Briefly, 200 μL of plasma was mixed with 10 μL of freshly prepared 10% ascorbic acid followed by 10 μL of 0.5% acetic acid and 10 μL of 2-(3-hydroxyphenyl) ethanol (10 μM, I.S.). Then, 2 mL of ethyl acetate was added to the samples that were vigorously mixed in a vortex (5 min), placed into an ultrasonic bath (10 min), and centrifuged at 1500g at 4 °C (15 min) (Centrifuge Megafuge 1.0R). A second extraction of the pellet with 2 mL of ethyl acetate was carried out. Subsequently, the two pooled supernatants were evaporated to dryness, reconstituted with 100 μL of 80% methanol, placed into amber vials, and immediately analyzed by LC-MS/MS.
# The plasmatic concentrations were calculated by the interpolation of the peak area ratio of hydroxytyrosol versus I.S. on a calibration curve. Calibration standards were constructed with blank plasma obtained by cardiac puncture from overnight fasted rats that had never received either table olives or hydroxytyrosol. […] Results were expressed in nmol per liter of plasma (nmol/L). The method was validated following the EMA guidelines[33] at six different concentrations ranging from 0 to 250 nmol/L analyzed on three different days.
# Individual PK of hydroxytyrosol and its metabolites were estimated from the plasma concentrations versus time profiles of each animal, through a noncompartmental analysis (NCA) with Phoenix-64 (Build 8.3.4.295, Certara, Princeton, N.J., USA). All concentrations of each pharmacokinetic profile were considered for NCA because the values obtained were above the LOQ. Peak plasma concentration (Cmax) and time to peak plasma concentration (Tmax) were determined by visual inspection of the pharmacokinetic profiles. The apparent elimination rate constant (λz) was estimated from the terminal slope of the semilogarithmic concentration–time curve. The apparent elimination half-life (t1/2λz) was calculated as t1/2z = 0.693/λz. The area under the plasma concentration–time curve from time zero to the last experimental time (AUCt) with analyte concentrations above the LOQ, was calculated by the linear-log trapezoidal rule. The area from time zero to infinity (AUC0–∞) was calculated by adding to the AUCt value the extrapolated area calculated as the ratio between the predicted concentration (Ct) at the last sampling time with concentrations above the LOQ and λz. The mean residence time (MRT0–∞) was given by the ratio of the area under the first-moment curve (AUMC0–∞) to the area under the zero-moment curve (AUC0–∞). The ratio indicating the relative exposure of each metabolite with respect to hydroxytyrosol (AUC0–∞m/AUC0–∞) was also calculated for all of the metabolites. […]
# [3] = 30 olives group (hydroxytyrosol 2.95 mg/kg oral), listed as hydroxytyrosol sulfate M1-a
# [4] = 60 olives group (hydroxytyrosol 5.89 mg/kg oral), listed as hydroxytyrosol sulfate M1-a
# [5] = both doses (30 and 60 olives groups)
# [6] = 30 olives group (hydroxytyrosol 2.95 mg/kg oral), listed as hydroxytyrosol sulfate M1-b
# [7] = 60 olives group (hydroxytyrosol 5.89 mg/kg oral), listed as hydroxytyrosol sulfate M1-b
substance,measurement,setting,value
hydroxytyrosol sulfate,share in rat plasma,"[1]; after phenolic extract from olive cake containing 10.35 mg/kg of hydroxytyrosol, ref Serra et al. 23",92%
same,share represented by hydroxytyrosol sulfates,[1]; oral 10 mg/kg of hydroxytyrosol to rats,60%
same,share represented by hydroxytyrosol sulfates,[1]; oral 100 mg/kg of hydroxytyrosol to rats,75%
hydroxytyrosol sulfate [M1-a],AUC0–∞,"[2]; 30 olives group (3.85 g olives/kg, hydroxytyrosol 2.95 mg/kg oral), listed as hydroxytyrosol sulfate M1-a","4765 (3491, 6504)^a min·nmol/L"
same,Cmax/D,[2]; [3],"0.00899 (0.00522, 0.01546)^a"
same,AUC0–∞/D,[2]; [3],"0.90 (0.68, 1.23)^a"
same,AUCt/D,[2]; [3],"0.82 (0.60, 1.11)^a"
same,Cl/F·fm (apparent clearance of metabolite),[2]; [3],"4.02 (2.95, 5.48)^a L/min/kg"
same,MRT0–∞,[2]; [3],"173 (121.9, 245.5)^a min"
same,"Vdarea/F·fm (apparent volume of distribution of metabolite, terminal phase)",[2]; [3],"491 (190, 1264)^a L/kg"
same,Vss/F·fm (apparent steady-state volume of distribution of metabolite),[2]; [3],"616 (339, 1120)^a L/kg"
same,t1/2λz (apparent elimination half-life),[2]; [3],"130.1 (64.5, 262.2)^a min"
same,λz (apparent elimination rate constant),[2]; [3],"0.0053 (0.0026, 0.011)^a 1/min"
same,Tmax,[2]; [3],"45.5 (30, 120)^a min"
same,AUCt,[2]; [3],"4321 (3152, 5924)^a min·nmol/L"
same,Cmax,"[2]; 30 olives group: single oral 3.85 g destoned olives/kg (hydroxytyrosol 2.95 mg/kg), n = 6, listed as hydroxytyrosol sulfate M1-a",47.3 nM
same,AUC0–∞,"[2]; 60 olives group (7.70 g olives/kg, hydroxytyrosol 5.89 mg/kg oral), listed as hydroxytyrosol sulfate M1-a","13133 (9812, 17577)^b min·nmol/L"
same,Cmax/D,[2]; [4],"0.00872 (0.00562, 0.01354)^a"
same,AUC0–∞/D,[2]; [4],"1.18 (0.84, 1.64)^a"
same,AUCt/D,[2]; [4],"1.02 (0.75, 1.38)^a"
same,Cl/F·fm (apparent clearance of metabolite),[2]; [4],"2.91 (2.17, 3,89)^a L/min/kg"
same,MRT0–∞,[2]; [4],"188.3 (143.6, 246,9)^a min"
same,"Vdarea/F·fm (apparent volume of distribution of metabolite, terminal phase)",[2]; [4],"479 (290, 790)^a L/kg"
same,Vss/F·fm (apparent steady-state volume of distribution of metabolite),[2]; [4],"548 (380, 789)^a L/kg"
same,t1/2λz (apparent elimination half-life),[2]; [4],"129.4 (83.0, 201.6)^a min"
same,λz (apparent elimination rate constant),[2]; [4],"0.0054 (0.0034, 0.0083)^a 1/min"
same,Tmax,[2]; [4],"36 (30, 42)^a min"
same,AUCt,[2]; [4],"11376 (8674, 14919)^b min·nmol/L"
same,Cmax,"[2]; 60 olives group: single oral 7.70 g destoned olives/kg (hydroxytyrosol 5.89 mg/kg), n = 7, listed as hydroxytyrosol sulfate M1-a",97.3 nM
same,AUC ratio of metabolite versus parent hydroxytyrosol (AUC0–∞m/AUC0–∞),[2]; [5],around 1.5
same,Vss/F·fm and Vdarea/F·fm,[2]; [5],approximately 500 L/kg
same,half-life (t1/2λz),[2]; [5],approximately 2 h
same,mean residence time (MRT0–∞),[2]; [5],around 3 h
same,percentage of the AUC of each compound divided by the AUC of the sum of all of them,[2],12%
hydroxytyrosol sulfate [M1-b],AUC0–∞,"[2]; 30 olives group (3.85 g olives/kg, hydroxytyrosol 2.95 mg/kg oral), listed as hydroxytyrosol sulfate M1-b","28084 (20399, 38664)^a min·nmol/L"
same,Cmax/D,[2]; [6],"0.0582 (0.0343, 0.0985)^a"
same,AUC0–∞/D,[2]; [6],"5.33 (3.89, 7.31)^a"
same,AUCt/D,[2]; [6],"5.11 (3.78, 6.90)^a"
same,Cl/F·fm (apparent clearance of metabolite),[2]; [6],"0.68 (0.49, 0.94)^a L/min/kg"
same,MRT0–∞,[2]; [6],"141.4 (118.1, 169.3)^a min"
same,"Vdarea/F·fm (apparent volume of distribution of metabolite, terminal phase)",[2]; [6],"85.0 (57.2, 126)^a L/kg"
same,Vss/F·fm (apparent steady-state volume of distribution of metabolite),[2]; [6],"96.4 (62.6, 148)^a L/kg"
same,t1/2λz (apparent elimination half-life),[2]; [6],"86.4 (67.7, 110)^a min"
same,λz (apparent elimination rate constant),[2]; [6],"0.0080 (0.0063, 0.01024)^a 1/min"
same,Tmax,[2]; [6],"30.50 (30,120)^a min"
same,AUCt,[2]; [6],"26907 (19824, 36520)^a min·nmol/L"
same,Cmax,"[2]; 30 olives group: single oral 3.85 g destoned olives/kg (hydroxytyrosol 2.95 mg/kg), n = 6, listed as hydroxytyrosol sulfate M1-b",306 nM
same,AUC0–∞,"[2]; 60 olives group (7.70 g olives/kg, hydroxytyrosol 5.89 mg/kg oral), listed as hydroxytyrosol sulfate M1-b","80006 (65787, 97299)^b min·nmol/L"
same,Cmax/D,[2]; [7],"0.0491 (0.0333, 0.0726)^a"
same,AUC0–∞/D,[2]; [7],"7.17 (5.62, 9.14)^a"
same,AUCt/D,[2]; [7],"6.05 (4.76, 7.70)^a"
same,Cl/F·fm (apparent clearance of metabolite),[2]; [7],"0.48 (0.39, 0.58)^a L/min/kg"
same,MRT0–∞,[2]; [7],"198.8 (139.0, 284.3)^a min"
same,"Vdarea/F·fm (apparent volume of distribution of metabolite, terminal phase)",[2]; [7],"75.1 (45.7, 123)^a L/kg"
same,Vss/F·fm (apparent steady-state volume of distribution of metabolite),[2]; [7],"83.5 (61.6, 112.9)^a L/kg"
same,t1/2λz (apparent elimination half-life),[2]; [7],"129.3 (74.1, 225.6)^a min"
same,λz (apparent elimination rate constant),[2]; [7],"0.0054 (0.0031, 0.0094)^a 1/min"
same,Tmax,[2]; [7],"38 (30, 100)^a min"
same,AUCt,[2]; [7],"67548 (53591, 85140)^b min·nmol/L"
same,Cmax,"[2]; 60 olives group: single oral 7.70 g destoned olives/kg (hydroxytyrosol 5.89 mg/kg), n = 7, listed as hydroxytyrosol sulfate M1-b",548 nM
same,Vss/F·fm and Vdarea/F·fm,[2]; [5],~90 L/kg
same,half-life (t1/2λz),[2]; [5],approximately 2 h
same,mean residence time (MRT0–∞),[2]; [5],around 3 h
same,percentage of the AUC of each compound divided by the AUC of the sum of all of them,[2],approximately 73%
